In patent publication US10220010B2 (AuXin Surgery SA, priority 2014, dated 2019) one finds MESNA, Other impurities and Mesna disulphide data, which are given here for one compound.

This data set is described as follows: impurities levels (Mesna disulphide percentage) of lyophilizate Mesna compositions. The format is physicochemical. The settings on record: content in composition. Here is the method: Measurements of Mesna disulfide percentage were conducted for different Mesna lyophilizates made according to the present invention. The compositions of the tested Mesna lyophilizates comprised 125 mg or 250 mg of Mesna in 2 ml Water for Injection. Other tested Mesna lyophilizates compositions further comprised trehalose or Mannitol. […] Any slightly higher increase was of maximum 0.5% compared to the Mesna disulfide percentage measured for the pharmaceutical grade Mesna (Table 2). […] In addition, the sum of Mesna disulphide percentage and other impurities percentage was also always lower than said maximum of 3%.

Values joined by “and” are separate entries in the source; they are usually repeats but may differ in a detail not shown here. Equal values may be shown once.

As for `O=S(=O)([O-])CCS.[Na+]` [Mesna P, Sodium 2-mercaptoethanesulfonate], the MESNA is 98.82% and 98.80% and 98.96%; the Other impurities is 0.15% and 0.20% and 0.19%. In addition, where the note is “stability marker”, the Mesna disulphide was 1.03% and 1.00% and 0.85%.
